Source: article PMC9283133, “Human cytosolic transaminases: side activities and patterns of discrimination towards physiologically available alternative substrates” (Cellular and Molecular Life Sciences: CMLS, 2022)

How the values were obtained:
[1] = target: T1, LDHA (lactate dehydrogenase A) (Homo sapiens, UniProt P00338); test: spectrophotometric reduction with NADH; format: biochemical
T1 construct: gift clone

PSAT1 = target: T2, PSAT1 (Homo sapiens, UniProt Q9Y617); test: end-point GDH assay of alpha-ketoglutarate; LC-MS of product; format: biochemical; conditions: L-Glu 1 mM as donor; pH 7.2, 37 C, 16 h
T2 sequence (Q9Y617 1-370): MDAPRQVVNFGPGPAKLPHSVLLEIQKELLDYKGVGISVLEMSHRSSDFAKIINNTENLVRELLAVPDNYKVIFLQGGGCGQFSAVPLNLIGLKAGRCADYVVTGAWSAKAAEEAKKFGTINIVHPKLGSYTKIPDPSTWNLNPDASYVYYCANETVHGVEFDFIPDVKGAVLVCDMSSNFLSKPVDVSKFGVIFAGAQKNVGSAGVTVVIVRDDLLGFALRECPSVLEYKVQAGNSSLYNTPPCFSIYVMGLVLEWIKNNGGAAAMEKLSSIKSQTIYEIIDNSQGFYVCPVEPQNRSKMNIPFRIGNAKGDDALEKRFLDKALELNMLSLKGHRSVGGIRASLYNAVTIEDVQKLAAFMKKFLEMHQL

[2] = target: T3, MDH1 (cytosolic malate dehydrogenase) (Homo sapiens, UniProt P40925); test: spectrophotometric reduction with NADH; format: biochemical
T3 construct: from human kidney cDNA, pET28a, His6-tagged, expressed in E. coli BL21(DE)
T3 sequence (P40925 2-334): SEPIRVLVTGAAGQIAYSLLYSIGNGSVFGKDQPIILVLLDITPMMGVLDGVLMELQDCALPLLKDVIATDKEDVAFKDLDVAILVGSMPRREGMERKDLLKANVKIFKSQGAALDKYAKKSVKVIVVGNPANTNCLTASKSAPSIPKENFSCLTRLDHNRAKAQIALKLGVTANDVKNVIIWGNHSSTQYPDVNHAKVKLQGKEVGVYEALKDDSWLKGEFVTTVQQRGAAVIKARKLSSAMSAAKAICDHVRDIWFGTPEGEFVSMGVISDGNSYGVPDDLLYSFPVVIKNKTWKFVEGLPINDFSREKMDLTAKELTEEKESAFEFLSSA

[3] = target: T4, TAT (tyrosine aminotransferase) (Homo sapiens, UniProt P17735); test: continuous coupled assay with MDH1 and NADH; format: biochemical; conditions: alpha-ketoglutarate 0.5 mM as acceptor; pH 8.0; read-out: apparent KM
T4 sequence (P17735 41-454): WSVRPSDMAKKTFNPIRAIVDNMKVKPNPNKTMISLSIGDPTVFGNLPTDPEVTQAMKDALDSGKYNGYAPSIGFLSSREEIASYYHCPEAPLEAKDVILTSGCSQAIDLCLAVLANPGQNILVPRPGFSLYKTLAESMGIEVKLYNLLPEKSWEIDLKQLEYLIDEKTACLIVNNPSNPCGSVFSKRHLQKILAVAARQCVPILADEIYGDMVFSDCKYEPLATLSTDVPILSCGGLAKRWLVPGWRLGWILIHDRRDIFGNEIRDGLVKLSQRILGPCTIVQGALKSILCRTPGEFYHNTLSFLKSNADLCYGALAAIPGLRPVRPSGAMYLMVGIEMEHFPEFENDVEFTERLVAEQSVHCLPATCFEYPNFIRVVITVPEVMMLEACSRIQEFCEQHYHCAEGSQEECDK
Excerpt: continuous coupled assay with MDH1 and NADH on TAT (tyrosine aminotransferase) | the opposite is true for TAT (Fig. 3A)

[4] = substrate: N[C@@H](Cc1c[nH]c2ccccc12)C(=O)O; test: continuous coupled assay with MDH1 and NADH; format: biochemical, Homo sapiens; conditions: pyruvate 3 mM as acceptor, pH 8.0

`CC(O)C(=O)C(=O)O` (stereo not drawn) [3-hydroxy-2-ketobutyrate] was tested, and the “spectrophotometric reduction with NADH” value [1] was 3-hydroxy-2-ketobutyrate, is a substrate for LDHA.

For `O=C(CO)COP(=O)(O)O` [DHAP], the “end-point GDH assay of alpha-ketoglutarate; LC-MS of product” value (PSAT1) was “DHAP, which reacted primarily with PSAT1”.

`O=C(O)C(=O)Cc1c[nH]c2ccccc12` [IndPy] was tested, and the “spectrophotometric reduction with NADH” value [2] was “recombinant MDH1 reduced with good efficiency IndPy”.

In the case of `N[C@@H](Cc1c[nH]c2ccccc12)C(=O)O` [L-Trp], the Km [3] is reported as greater than 10 mM.

B1: GTK (glutamine transaminase K; KYAT1) (Homo sapiens) (protein)
chain: MAKQLQARRLDGIDYNPWVEFVKLASEHDVVNLGQGFPDFPPPDFAVEAFQHAVSGDFMLNQYTKTFGYPPLTKILASFFGELLGQEIDPLRNVLVTVGGYGALFTAFQALVDEGDEVIIIEPFFDCYEPMTMMAGGRPVFVSLKPGPIQNGELGSSSNWQLDPMELAGKFTSRTKALVLNTPNNPLGKVFSREELELVASLCQQHDVVCITDEVYQWMVYDGHQHISIASLPGMWERTLTIGSAGKTFSATGWKVGWVLGPDHIMKHLRTVHQNSVFHCPTQSQAAVAESFEREQLLFRQPSSYFVQFPQAMQRCRDHMIRSLQSVGLKPIIPQGSYFLITDISDFKRKMPDLPGAVDEPYDRRFVKWMIKNKGLVAIPVSIFYSVPHQKHFDHYIRFCFVKDEATLQAMDEKLRKWKVEL
notes: cytosolic enzyme
B1 was tested, and the Km [4] was 0.14 ± 0.03 mM and the kcat/Km [4] was 490 ± 30 M⁻¹ s⁻¹.
